Laboratory results published in patent US9242945B2, “Substituted 2-benzylidene-2H-benzo[b][1,4]thiazin-3(4H)-ones, derivatives thereof, and therapeutic uses thereof” (TEMPLE UNIVERSITY—OF THE COMMONWEALTH SYSTEM OF HIGHER …, priority 2011, dated 2016).
Like-named read-outs stand apart in the source and are kept apart here.

Assays:
DU145 (prostate cancer) = test: Cytotoxicity assay, DU145 tumor cells; format: cell-based; conditions: Homo sapiens, DU-145, 96 h treatment
Description: (§1) The effect of the compounds of the invention on tumor cells was determined by the assay described by Latham et al., Oncogene 12:827-837 (1996). Tumor cells K562 (chronic myelogenous leukemia; leukemia cell line +ve for Bcr-Abl) or DU145 (prostate cancer) were plated in 12-well dishes at a cell density of 2.5×10^4 cells well. The plated cells were treated 24 hours later with a compound of the invention dissolved in DMSO at multiple concentrations ranging from 0.01 μM to 100 μM. The plates were examined 96 hours later under an inverted microscope, Olympus CK-2 using a 10× objective, and compound activity was noted by physical observation. When necessary, the total number of viable cells was determined by trypsinizing the wells and counting the number of viable cells, as determined by trypan blue exclusion, using a hemacytometer. Where “Lower” and “Upper” value are provided in Table 5, the IC50 was determined to be within that range. When only a “Lower” value is provided and no “Upper” value is listed, the IC50 was that value, or less than or greater than that value, as set forth in the Table.
(§2) The cytotoxicity of Compound 42, (Z)-6-((2,6-dichlorobenzyl)sulfonyl)-2-(4-hydroxy-3-nitrobenzylidene)-2H-benzo[b][1,4]thiazin-3(4H)-one, was determined according the assay method of Example 7 on the prostate (androgen dependent or independent), breast and pancreatic cancer cell lines listed in Table 6A, below, and the additional cell lines listed in Table 6B, below. The human mesenchymal stem cell line HMSC.hTERT and normal human fibroblast cell line HFL was included in the test.

[1] = system: K562 (chronic myelogenous leukemia; leukemia cell line +ve for Bcr-Abl); test: Cytotoxicity assay, K562 tumor cells; format: cell-based; conditions: Homo sapiens, K562, 96 h treatment
Description: as §1, §2

[2] = lower limit of the IC50 range, or the IC50 itself (or its bound) where no Upper value is listed, read-out: DU145 IC50 (μm) Lower (μm)
[3] = lower limit of the IC50 range, or the IC50 itself (or its bound) where no Upper value is listed, read-out: K562 IC50 (μm) Lower (μm)
[4] = upper limit of the IC50 range, read-out: DU145 IC50 (μm) Upper (μm)
[5] = upper limit of the IC50 range, read-out: K562 IC50 (μm) Upper (μm)

Compound | IC50 (DU145 (prostate cancer); [2]) [nM] | IC50 [1, 3] [nM] | IC50 (DU145 (prostate cancer); [4]) [nM] | IC50 [1, 5] [nM]
O=C1Nc2ccc(F)cc2S/C1=C\c1ccc(OCc2ccccc2)c([N+](=O)[O-])c1 [Compound 43, (Z)-2-(4-(benzyloxy)-3-nitrobenzylidene)-7-fluoro-2H-benzo[b][1,4]thiazin-3(4H)-one] | > 10000 | > 10000 |  | 
CC(=O)Oc1ccc(/C=C2\Sc3cc(C)ccc3NC2=O)cc1[N+](=O)[O-] [Compound 4, (Z)-4-((7-methyl-3-oxo-3,4-dihydro-2H-benzo[b][1,4]thiazin-2-ylidene)methyl)-2-nitrophenyl acetate] | ≥ 1000 | ≥ 1000 | ≤ 10000 | ≤ 10000
O=C1Nc2cc(S(=O)(=O)Cc3c(Cl)cccc3Cl)ccc2S/C1=C\c1ccc([N+](=O)[O-])cc1 [Compound 14, (Z)-6-((2,6-dichlorobenzyl)sulfonyl)-2-(4-nitrobenzylidene)-2H-benzo[b][1,4]thiazin-3(4H)-one] | ≥ 1000 | ≥ 1000 | ≤ 10000 | ≤ 10000
Cc1ccc(S(=O)(=O)Oc2ccc(/C=C3\Sc4ccc(S(=O)(=O)Cc5c(Cl)cccc5Cl)cc4NC3=O)cc2[N+](=O)[O-])cc1 [Compound 38, (Z)-4-((6-((2,6-dichlorobenzyl)sulfonyl)-3-oxo-3,4-dihydro-2H-benzo[b][1,4]thiazin-2-ylidene)methyl)-2-nitrophenyl 4-methylbenzenesulfonate] | 90 | 100 |  | 
COc1ccc(/C=C2\Sc3ccc(S(=O)(=O)Cc4c(Cl)cccc4Cl)cc3NC2=O)cc1[N+](=O)[O-] [Compound 11, (Z)-6-((2,6-dichlorobenzyl)sulfonyl)-2-(4-methoxy-3-nitrobenzylidene)-2H-benzo[b][1,4]thiazin-3(4H)-one] | ≥ 250 | ≥ 250 | ≤ 500 | ≤ 500
O=C1Nc2ccc(F)cc2S/C1=C\c1ccc(O)c([N+](=O)[O-])c1 [Compound 44, (Z)-7-fluoro-2-(4-hydroxy-3-nitrobenzylidene)-2H-benzo[b][1,4]thiazin-3(4H)-one] | 750 | 250 |  | 
CC(=O)Oc1ccc(/C=C2\Sc3ccc(F)cc3NC2=O)cc1[N+](=O)[O-] [Compound 7, (Z)-4-((6-fluoro-3-oxo-3,4-dihydro-2H-benzo[b][1,4]thiazin-2-ylidene)methyl)-2-nitrophenyl acetate] | ≥ 1000 | ≥ 1000 | ≤ 10000 | ≤ 10000
COc1ccc2c(c1)S/C(=C\c1ccc(OC(C)=O)c([N+](=O)[O-])c1)C(=O)N2C(C)=O [Compound 40, (Z)-4-((4-acetyl-7-methoxy-3-oxo-3,4-dihydro-2H-benzo[b][1,4]thiazin-2-ylidene)methyl)-2-nitrophenyl acetate] | 2000 | 1500 |  | 
CC(=O)Oc1ccc(/C=C2\Sc3cc(C(=O)O)ccc3NC2=O)cc1[N+](=O)[O-] [Compound 5, (Z)-2-(4-acetoxy-3-nitrobenzylidene)-3-oxo-3,4-dihydro-2H-benzo[b][1,4]thiazine-7-carboxylic acid] | > 100000 | ≥ 50000 |  | ≤ 100000
O=C1Nc2cc(S(=O)(=O)Cc3c(Cl)cccc3Cl)ccc2S/C1=C\c1ccc(Cl)cc1 [Compound 17, (Z)-2-(4-chlorobenzylidene)-6-((2,6-dichlorobenzyl)sulfonyl)-2H-benzo[b][1,4]thiazin-3(4H)-one] | ≥ 1000 | ≥ 1000 | ≤ 10000 | ≤ 10000
